# Target: T1, D(4) dopamine receptor (Homo sapiens, UniProt P21917)
# T1 sequence (P21917 whole entry): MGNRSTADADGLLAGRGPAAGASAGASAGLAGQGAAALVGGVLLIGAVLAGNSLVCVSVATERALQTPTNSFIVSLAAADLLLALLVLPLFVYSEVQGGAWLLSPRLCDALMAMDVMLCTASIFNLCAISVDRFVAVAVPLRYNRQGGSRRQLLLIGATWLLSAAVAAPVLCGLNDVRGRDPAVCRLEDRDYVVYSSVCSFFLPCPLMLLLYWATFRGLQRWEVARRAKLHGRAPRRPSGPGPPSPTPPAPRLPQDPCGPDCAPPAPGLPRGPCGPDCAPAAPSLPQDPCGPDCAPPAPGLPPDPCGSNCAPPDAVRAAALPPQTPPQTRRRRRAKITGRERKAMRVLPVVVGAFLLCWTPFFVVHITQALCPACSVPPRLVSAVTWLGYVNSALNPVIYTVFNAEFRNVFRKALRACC
# Test: DRUGMATRIX: Dopamine D4.2 radioligand binding (ligand: [3H] Spiperone)
# Format: cell membranes, CHO-K1, Membrane
# Conditions: cho-k1; Not Active = under 50% inhibition at 10 µM
row,Structure (SMILES),IC50
1,CC12CCC(CC1)C(C)(C)O2 [EUCALYPTOL],Not Active
2,Nc1nc(N)c2nc(CNc3ccc(C(=O)N[C@@H](CCC(=O)O)C(=O)O)cc3)cnc2n1 [AMINOPTERIN],Not Active
3,Nc1ccc(Cc2ccc(N)cc2)cc1,Not Active
4,COc1ccccc1OCCNCC(O)COc1cccc2[nH]c3ccccc3c12 (centres undefined) [CARVEDILOL],Not Active
5,CCN1CCN(c2cc3c(cc2F)c(=O)c(C(=O)O)cn3C2CC2)CC1 [ENROFLOXACIN],Not Active
6,CC(C)Cc1ccc([C@H](C)C(=O)O)cc1 [DEXIBUPROFEN],Not Active

# Target: D(1A) dopamine receptor (Homo sapiens, UniProt P21728)
# Sequence (P21728 whole entry): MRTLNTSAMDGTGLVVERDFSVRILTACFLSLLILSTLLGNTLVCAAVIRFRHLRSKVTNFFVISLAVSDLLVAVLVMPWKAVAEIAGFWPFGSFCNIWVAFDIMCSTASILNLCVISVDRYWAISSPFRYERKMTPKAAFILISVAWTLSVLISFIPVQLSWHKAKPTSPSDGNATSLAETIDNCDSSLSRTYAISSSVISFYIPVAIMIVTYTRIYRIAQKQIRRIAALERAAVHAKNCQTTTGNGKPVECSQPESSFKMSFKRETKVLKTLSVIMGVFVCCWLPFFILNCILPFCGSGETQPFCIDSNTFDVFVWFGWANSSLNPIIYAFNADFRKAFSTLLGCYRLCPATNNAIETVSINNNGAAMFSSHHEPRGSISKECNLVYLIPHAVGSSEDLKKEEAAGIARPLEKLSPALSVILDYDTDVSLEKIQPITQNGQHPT
# Test: DRUGMATRIX: Dopamine D1 radioligand binding (ligand: [3H] SCH-23390)
# Format: cell membranes, CHO, Membrane
# Conditions: Not Active = under 50% inhibition at 10 µM; read-out: IC50
row,Structure (SMILES),IC50 [nM]
1,COc1ccccc1OCCNCC(O)COc1cccc2[nH]c3ccccc3c12 (centres undefined) [CARVEDILOL],1500

# Same assay, conditions: Not Active = under 50% inhibition at 10 µM; read-out: Ki
row,Structure (SMILES),Ki [nM]
1,COc1ccccc1OCCNCC(O)COc1cccc2[nH]c3ccccc3c12 (centres undefined) [CARVEDILOL],749

# Same assay, conditions: cho; Not Active = under 50% inhibition at 10 µM
row,Structure (SMILES),IC50
1,CC12CCC(CC1)C(C)(C)O2 [EUCALYPTOL],Not Active
2,Nc1nc(N)c2nc(CNc3ccc(C(=O)N[C@@H](CCC(=O)O)C(=O)O)cc3)cnc2n1 [AMINOPTERIN],Not Active
3,Nc1ccc(Cc2ccc(N)cc2)cc1,Not Active
4,CCN1CCN(c2cc3c(cc2F)c(=O)c(C(=O)O)cn3C2CC2)CC1 [ENROFLOXACIN],Not Active
5,CC(C)Cc1ccc([C@H](C)C(=O)O)cc1 [DEXIBUPROFEN],Not Active

# Target: Receptor tyrosine-protein kinase erbB-2 (Homo sapiens, UniProt P04626);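 note: inhibition of HER2 kinase enzyme activity, measured with Poly(Glu:Tyr) as the phosphorylation substrate; in other assays of this panel Not Active means under 50% inhibition at 10 µM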
# Sequence (P04626 whole entry): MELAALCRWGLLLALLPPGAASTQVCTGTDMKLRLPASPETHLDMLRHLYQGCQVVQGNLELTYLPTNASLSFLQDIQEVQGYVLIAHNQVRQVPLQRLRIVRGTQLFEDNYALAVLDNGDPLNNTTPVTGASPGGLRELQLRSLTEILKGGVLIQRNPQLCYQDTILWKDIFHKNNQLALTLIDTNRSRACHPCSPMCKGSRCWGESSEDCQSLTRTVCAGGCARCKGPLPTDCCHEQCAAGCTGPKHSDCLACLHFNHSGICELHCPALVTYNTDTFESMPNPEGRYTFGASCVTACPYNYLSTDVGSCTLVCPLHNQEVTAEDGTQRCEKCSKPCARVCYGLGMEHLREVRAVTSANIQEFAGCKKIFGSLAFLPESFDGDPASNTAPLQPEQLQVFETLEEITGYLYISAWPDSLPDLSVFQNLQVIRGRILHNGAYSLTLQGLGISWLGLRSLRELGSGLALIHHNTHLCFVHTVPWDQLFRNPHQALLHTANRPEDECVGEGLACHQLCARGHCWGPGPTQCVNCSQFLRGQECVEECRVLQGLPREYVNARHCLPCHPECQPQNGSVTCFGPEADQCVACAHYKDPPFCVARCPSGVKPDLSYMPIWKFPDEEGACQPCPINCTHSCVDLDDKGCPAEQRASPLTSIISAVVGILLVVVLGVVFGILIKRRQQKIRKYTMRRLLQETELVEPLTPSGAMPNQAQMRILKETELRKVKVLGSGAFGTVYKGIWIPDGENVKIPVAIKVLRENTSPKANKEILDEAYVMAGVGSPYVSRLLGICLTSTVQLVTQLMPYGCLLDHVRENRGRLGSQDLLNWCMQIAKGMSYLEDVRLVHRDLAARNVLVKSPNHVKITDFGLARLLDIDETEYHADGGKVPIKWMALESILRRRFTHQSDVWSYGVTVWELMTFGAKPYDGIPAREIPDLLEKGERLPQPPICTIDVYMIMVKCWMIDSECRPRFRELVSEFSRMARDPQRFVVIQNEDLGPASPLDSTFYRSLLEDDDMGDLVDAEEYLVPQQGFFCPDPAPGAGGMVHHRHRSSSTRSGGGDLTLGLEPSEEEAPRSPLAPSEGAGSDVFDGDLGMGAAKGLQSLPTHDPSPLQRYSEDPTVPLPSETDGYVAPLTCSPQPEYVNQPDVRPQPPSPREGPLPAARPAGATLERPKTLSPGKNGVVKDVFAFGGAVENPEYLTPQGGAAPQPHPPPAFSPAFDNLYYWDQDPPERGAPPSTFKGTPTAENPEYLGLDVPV
# Format: cell-based
# Conditions: insect cells
row,Structure (SMILES),IC50
1,CC12CCC(CC1)C(C)(C)O2 [EUCALYPTOL],Not Active
2,Nc1nc(N)c2nc(CNc3ccc(C(=O)N[C@@H](CCC(=O)O)C(=O)O)cc3)cnc2n1 [AMINOPTERIN],Not Active
3,Nc1ccc(Cc2ccc(N)cc2)cc1,Not Active
4,COc1ccccc1OCCNCC(O)COc1cccc2[nH]c3ccccc3c12 (centres undefined) [CARVEDILOL],Not Active
5,CCN1CCN(c2cc3c(cc2F)c(=O)c(C(=O)O)cn3C2CC2)CC1 [ENROFLOXACIN],Not Active
6,CC(C)Cc1ccc([C@H](C)C(=O)O)cc1 [DEXIBUPROFEN],Not Active

# Target: T2, B2 bradykinin receptor (Homo sapiens, UniProt P30411); note: in other assays of this panel Not Active means under 50% inhibition at 10 µM
# T2 sequence (P30411 whole entry): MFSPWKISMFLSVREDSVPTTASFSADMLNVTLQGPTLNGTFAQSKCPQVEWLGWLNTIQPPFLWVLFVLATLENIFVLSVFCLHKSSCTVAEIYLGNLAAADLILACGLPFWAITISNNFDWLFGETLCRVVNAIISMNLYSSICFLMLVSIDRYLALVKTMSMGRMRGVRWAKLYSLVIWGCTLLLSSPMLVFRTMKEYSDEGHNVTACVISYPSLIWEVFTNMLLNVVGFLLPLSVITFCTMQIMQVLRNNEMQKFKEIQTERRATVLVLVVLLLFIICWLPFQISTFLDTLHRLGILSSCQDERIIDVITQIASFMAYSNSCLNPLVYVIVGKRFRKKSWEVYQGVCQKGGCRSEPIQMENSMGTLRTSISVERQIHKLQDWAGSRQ
# Format: cell membranes, Membrane
# Conditions: chem-1
row,Structure (SMILES),IC50
1,CC12CCC(CC1)C(C)(C)O2 [EUCALYPTOL],Not Active
2,Nc1nc(N)c2nc(CNc3ccc(C(=O)N[C@@H](CCC(=O)O)C(=O)O)cc3)cnc2n1 [AMINOPTERIN],Not Active
3,Nc1ccc(Cc2ccc(N)cc2)cc1,Not Active
4,COc1ccccc1OCCNCC(O)COc1cccc2[nH]c3ccccc3c12 (centres undefined) [CARVEDILOL],Not Active
5,CCN1CCN(c2cc3c(cc2F)c(=O)c(C(=O)O)cn3C2CC2)CC1 [ENROFLOXACIN],Not Active
6,CC(C)Cc1ccc([C@H](C)C(=O)O)cc1 [DEXIBUPROFEN],Not Active

# Target: T3, Receptor-type tyrosine-protein phosphatase C (Homo sapiens, UniProt P08575);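 note: inhibition of CD45 enzyme activity measured using DiFMUP as substrate; in other assays of this panel Not Active means under 50% inhibition at 10 µM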
# T3 sequence (P08575 whole entry): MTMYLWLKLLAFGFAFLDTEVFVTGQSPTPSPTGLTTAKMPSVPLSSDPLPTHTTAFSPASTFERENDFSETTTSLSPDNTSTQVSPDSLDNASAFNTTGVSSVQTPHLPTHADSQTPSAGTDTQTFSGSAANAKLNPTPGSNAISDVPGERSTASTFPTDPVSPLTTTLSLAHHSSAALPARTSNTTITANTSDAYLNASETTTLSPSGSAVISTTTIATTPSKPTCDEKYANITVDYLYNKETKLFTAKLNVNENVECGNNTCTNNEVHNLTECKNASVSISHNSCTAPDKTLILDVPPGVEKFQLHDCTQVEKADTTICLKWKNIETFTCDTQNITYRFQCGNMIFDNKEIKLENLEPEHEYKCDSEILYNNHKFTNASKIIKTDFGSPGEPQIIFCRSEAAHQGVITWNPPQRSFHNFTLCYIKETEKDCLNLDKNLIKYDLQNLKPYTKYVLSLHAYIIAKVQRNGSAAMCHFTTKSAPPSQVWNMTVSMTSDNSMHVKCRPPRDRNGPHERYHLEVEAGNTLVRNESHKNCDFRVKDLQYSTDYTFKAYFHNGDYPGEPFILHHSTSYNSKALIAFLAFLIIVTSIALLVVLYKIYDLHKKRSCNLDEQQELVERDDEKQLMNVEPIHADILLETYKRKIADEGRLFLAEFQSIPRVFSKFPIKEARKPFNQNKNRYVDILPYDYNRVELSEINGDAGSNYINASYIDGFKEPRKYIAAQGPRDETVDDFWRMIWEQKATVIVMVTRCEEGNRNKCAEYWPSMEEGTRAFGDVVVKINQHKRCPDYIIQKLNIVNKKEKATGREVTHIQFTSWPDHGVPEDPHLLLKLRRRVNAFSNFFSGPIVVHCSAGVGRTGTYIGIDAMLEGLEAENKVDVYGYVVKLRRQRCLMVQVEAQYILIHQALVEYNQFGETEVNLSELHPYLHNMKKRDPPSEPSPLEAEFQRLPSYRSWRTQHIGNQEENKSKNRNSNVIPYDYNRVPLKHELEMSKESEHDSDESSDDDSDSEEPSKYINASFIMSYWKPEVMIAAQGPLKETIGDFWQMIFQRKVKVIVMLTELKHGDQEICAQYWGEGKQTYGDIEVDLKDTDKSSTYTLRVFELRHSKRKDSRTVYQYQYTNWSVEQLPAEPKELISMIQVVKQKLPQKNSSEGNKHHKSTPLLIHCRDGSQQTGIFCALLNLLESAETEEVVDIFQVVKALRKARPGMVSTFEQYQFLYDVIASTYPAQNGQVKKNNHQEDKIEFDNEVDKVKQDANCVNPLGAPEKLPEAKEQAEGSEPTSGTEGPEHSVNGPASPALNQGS
# Design: species or system Escherichia coli
# Conditions: not given
row,Structure (SMILES),IC50
1,CC12CCC(CC1)C(C)(C)O2 [EUCALYPTOL],Not Active
2,Nc1nc(N)c2nc(CNc3ccc(C(=O)N[C@@H](CCC(=O)O)C(=O)O)cc3)cnc2n1 [AMINOPTERIN],Not Active
3,Nc1ccc(Cc2ccc(N)cc2)cc1,Not Active
4,COc1ccccc1OCCNCC(O)COc1cccc2[nH]c3ccccc3c12 (centres undefined) [CARVEDILOL],Not Active
5,CCN1CCN(c2cc3c(cc2F)c(=O)c(C(=O)O)cn3C2CC2)CC1 [ENROFLOXACIN],Not Active
6,CC(C)Cc1ccc([C@H](C)C(=O)O)cc1 [DEXIBUPROFEN],Not Active

# Target: T4, Muscarinic acetylcholine receptor M2 (Homo sapiens, UniProt P08172); note: in other assays of this panel Not Active means under 50% inhibition at 10 µM
# T4 sequence (P08172 whole entry): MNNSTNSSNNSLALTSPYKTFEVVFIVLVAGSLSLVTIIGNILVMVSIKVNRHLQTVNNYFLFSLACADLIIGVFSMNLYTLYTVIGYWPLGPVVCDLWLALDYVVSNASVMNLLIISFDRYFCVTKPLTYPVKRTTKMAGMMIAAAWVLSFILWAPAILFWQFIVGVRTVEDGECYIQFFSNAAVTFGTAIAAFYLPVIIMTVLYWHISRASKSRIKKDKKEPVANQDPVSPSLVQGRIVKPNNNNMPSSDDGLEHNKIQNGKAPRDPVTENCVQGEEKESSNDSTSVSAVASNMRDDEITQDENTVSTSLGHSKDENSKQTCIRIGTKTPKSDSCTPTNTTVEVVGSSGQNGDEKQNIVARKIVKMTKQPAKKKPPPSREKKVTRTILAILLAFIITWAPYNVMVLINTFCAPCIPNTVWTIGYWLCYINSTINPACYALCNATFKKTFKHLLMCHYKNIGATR
# Format: cell membranes, CHO-K1, Membrane
# Conditions: cho-k1
row,Structure (SMILES),IC50
1,CC12CCC(CC1)C(C)(C)O2 [EUCALYPTOL],Not Active
2,Nc1nc(N)c2nc(CNc3ccc(C(=O)N[C@@H](CCC(=O)O)C(=O)O)cc3)cnc2n1 [AMINOPTERIN],Not Active
3,Nc1ccc(Cc2ccc(N)cc2)cc1,Not Active
4,COc1ccccc1OCCNCC(O)COc1cccc2[nH]c3ccccc3c12 (centres undefined) [CARVEDILOL],Not Active
5,CCN1CCN(c2cc3c(cc2F)c(=O)c(C(=O)O)cn3C2CC2)CC1 [ENROFLOXACIN],Not Active
6,CC(C)Cc1ccc([C@H](C)C(=O)O)cc1 [DEXIBUPROFEN],Not Active

# System: not listed separately
# Test: DRUGMATRIX: Sigma2 radioligand binding (ligand: [3H] Ifenprodil)
# Format: cell membranes, Rattus norvegicus, Wistar, Brain, Membrane
# Conditions: Not Active = under 50% inhibition at 10 µM
Structure (SMILES),IC50,Ki
CC12CCC(CC1)C(C)(C)O2 [EUCALYPTOL],Not Active,Not Active
Nc1nc(N)c2nc(CNc3ccc(C(=O)N[C@@H](CCC(=O)O)C(=O)O)cc3)cnc2n1 [AMINOPTERIN],Not Active,Not Active
Nc1ccc(Cc2ccc(N)cc2)cc1,Not Active,Not Active
COc1ccccc1OCCNCC(O)COc1cccc2[nH]c3ccccc3c12 (centres undefined) [CARVEDILOL],Not Active,Not Active
CCN1CCN(c2cc3c(cc2F)c(=O)c(C(=O)O)cn3C2CC2)CC1 [ENROFLOXACIN],Not Active,Not Active
CC(C)Cc1ccc([C@H](C)C(=O)O)cc1 [DEXIBUPROFEN],Not Active,Not Active
